# In ChEMBL document CHEMBL4364276, “Discovery of 4-phenyl-2H-benzo[b][1,4]oxazin-3(4H)-one derivatives as potent and orally active PI3K/mTOR dual inhibitors” (Eur J Med Chem, 2019):
# How the values were obtained:
# [1] = molecular target: Phosphatidylinositol 4,5-bisphosphate 3-kinase catalytic subunit gamma isoform (Homo sapiens, UniProt P48736); experiment: Inhibition of recombinant human full length N-terminal DYKDDDDK-tagged PI3Kgamma (1 to 1102 residues) expressed in baculovirus expression system using PIP2 as substrate incubated for 2 hrs by ADP-Glo assay
# Chain of Phosphatidylinositol 4,5-bisphosphate 3-kinase catalytic subunit gamma isoform (P48736 whole entry, the tested form may be a part, canonical isoform): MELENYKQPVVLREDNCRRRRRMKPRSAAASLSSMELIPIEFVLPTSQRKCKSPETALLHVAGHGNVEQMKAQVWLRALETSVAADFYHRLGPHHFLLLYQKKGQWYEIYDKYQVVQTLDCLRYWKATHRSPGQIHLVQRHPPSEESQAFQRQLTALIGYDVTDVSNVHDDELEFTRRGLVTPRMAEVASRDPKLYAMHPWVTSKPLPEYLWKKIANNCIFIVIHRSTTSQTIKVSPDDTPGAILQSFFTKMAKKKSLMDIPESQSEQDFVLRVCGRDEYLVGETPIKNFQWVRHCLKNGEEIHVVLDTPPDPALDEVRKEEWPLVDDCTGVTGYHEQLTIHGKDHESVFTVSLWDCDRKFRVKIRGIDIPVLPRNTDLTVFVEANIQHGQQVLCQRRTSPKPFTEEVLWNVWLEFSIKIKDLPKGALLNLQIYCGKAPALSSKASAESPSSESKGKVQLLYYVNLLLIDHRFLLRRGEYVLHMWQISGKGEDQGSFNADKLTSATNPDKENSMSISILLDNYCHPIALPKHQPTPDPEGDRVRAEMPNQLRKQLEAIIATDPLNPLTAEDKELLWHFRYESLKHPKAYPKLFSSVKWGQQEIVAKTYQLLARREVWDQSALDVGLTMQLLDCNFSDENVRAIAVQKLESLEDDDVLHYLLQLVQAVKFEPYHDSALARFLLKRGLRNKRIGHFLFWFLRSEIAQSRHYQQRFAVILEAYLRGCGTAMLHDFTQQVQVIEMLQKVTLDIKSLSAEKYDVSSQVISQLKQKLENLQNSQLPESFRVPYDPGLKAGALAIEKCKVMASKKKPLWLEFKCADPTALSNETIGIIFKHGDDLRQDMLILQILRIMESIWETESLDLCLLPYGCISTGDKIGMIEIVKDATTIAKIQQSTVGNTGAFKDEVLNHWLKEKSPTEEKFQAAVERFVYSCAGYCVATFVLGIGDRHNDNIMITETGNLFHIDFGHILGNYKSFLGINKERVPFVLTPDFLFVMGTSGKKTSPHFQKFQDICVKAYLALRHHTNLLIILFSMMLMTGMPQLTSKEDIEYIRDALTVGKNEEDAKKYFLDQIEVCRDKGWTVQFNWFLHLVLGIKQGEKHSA
# [2] = Clearance in Sprague-Dawley rat at 1 mg/kg, iv measured upto 24 hrs by LC-MS/MS analysis; type: ADME, organism-based; details: in vivo
# [3] = molecular target: TGF-beta receptor type-1 (Homo sapiens) (UniProt P36897); experiment: Inhibition of human ALK5 at 100 nM using casein as substrate by [gamma-33P]-ATP assay
# [4] = molecular target: Calcium/calmodulin-dependent protein kinase type 1B (Homo sapiens) (UniProt Q6P2M8); experiment: Inhibition of human CAMK1B at 100 nM using KKALRRQETVDAL as substrate by [gamma-33P]-ATP assay
# [5] = molecular target: Cyclin-dependent kinase 1/cyclin B1 (Homo sapiens) (UniProt P06493+P14635); experiment: Inhibition of human CDK1/cyclinB at 100 nM using Histone H1 as substrate by [gamma-33P]-ATP assay; type: protein-complex assay
# Chain of Cyclin-dependent kinase 1/cyclin B1 (Homo sapiens) (P06493 whole entry, looked up): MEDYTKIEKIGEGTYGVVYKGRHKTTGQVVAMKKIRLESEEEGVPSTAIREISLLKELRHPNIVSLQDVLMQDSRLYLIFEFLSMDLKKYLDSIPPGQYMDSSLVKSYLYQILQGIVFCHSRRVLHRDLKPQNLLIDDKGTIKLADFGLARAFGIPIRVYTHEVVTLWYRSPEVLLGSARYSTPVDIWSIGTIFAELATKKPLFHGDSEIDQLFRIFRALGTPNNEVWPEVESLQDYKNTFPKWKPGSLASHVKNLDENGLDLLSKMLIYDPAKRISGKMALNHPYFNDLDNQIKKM
# Chain of Cyclin-dependent kinase 1/cyclin B1 (Homo sapiens) (P14635 whole entry, looked up): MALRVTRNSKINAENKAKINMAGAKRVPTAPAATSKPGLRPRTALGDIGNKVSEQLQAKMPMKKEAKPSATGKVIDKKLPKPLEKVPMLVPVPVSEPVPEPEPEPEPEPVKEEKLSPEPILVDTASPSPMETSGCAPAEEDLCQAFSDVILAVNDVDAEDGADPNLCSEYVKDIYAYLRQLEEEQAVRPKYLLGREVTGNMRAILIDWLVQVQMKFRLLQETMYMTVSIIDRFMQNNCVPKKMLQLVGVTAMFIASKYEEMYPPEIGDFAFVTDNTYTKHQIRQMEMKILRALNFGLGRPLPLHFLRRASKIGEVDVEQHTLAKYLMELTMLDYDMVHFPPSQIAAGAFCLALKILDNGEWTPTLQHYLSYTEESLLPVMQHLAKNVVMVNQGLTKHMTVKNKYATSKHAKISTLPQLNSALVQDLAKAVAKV
# [6] = molecular target: CDK2/Cyclin-E2 (Homo sapiens) (UniProt P24941+O96020); experiment: Inhibition of human CDK2/cyclin-E2 at 100 nM using histone H1 as substrate by [gamma-33P]-ATP assay; type: protein-complex assay
# [7] = molecular target: Cyclin-dependent kinase 5/CDK5 activator 1 (Homo sapiens) (UniProt Q00535+Q15078); experiment: Inhibition of human CDK5/p35 at 100 nM using histone H1 as substrate by [gamma-33P]-ATP assay; type: protein-complex assay
# [8] = molecular target: Serine/threonine-protein kinase Chk1 (Homo sapiens) (UniProt O14757); experiment: Inhibition of human CHK1 at 100 nM using KKKVSRSGLYRSPSMPENLNRPR as substrate by [gamma-33P]-ATP assay
# Chain of Serine/threonine-protein kinase Chk1 (Homo sapiens) (O14757 whole entry, canonical isoform): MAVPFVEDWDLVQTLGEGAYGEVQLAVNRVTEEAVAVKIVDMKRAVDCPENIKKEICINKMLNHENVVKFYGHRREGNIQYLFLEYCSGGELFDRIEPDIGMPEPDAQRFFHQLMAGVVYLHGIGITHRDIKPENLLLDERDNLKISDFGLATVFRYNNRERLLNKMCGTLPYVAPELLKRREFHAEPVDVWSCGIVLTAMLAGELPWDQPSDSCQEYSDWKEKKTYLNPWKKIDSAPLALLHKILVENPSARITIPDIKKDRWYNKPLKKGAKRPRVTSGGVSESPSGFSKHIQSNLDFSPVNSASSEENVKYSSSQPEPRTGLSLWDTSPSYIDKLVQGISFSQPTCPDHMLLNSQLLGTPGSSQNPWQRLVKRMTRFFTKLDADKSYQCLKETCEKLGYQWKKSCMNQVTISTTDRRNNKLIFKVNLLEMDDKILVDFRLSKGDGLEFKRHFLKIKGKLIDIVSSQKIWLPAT
# [9] = molecular target: Casein kinase I isoform gamma-2 (Homo sapiens) (UniProt P78368); experiment: Inhibition of human CK1gamma2 at 100 nM using KRRRAL[pS]VASLPGL as substrate by [gamma-33P]-ATP assay
# [10] = molecular target: Mitogen-activated protein kinase kinase kinase 8 (Homo sapiens) (UniProt P41279); experiment: Inhibition of human COT1 at 100 nM using MEK1 as substrate by [gamma-33P]-ATP assay
# [11] = molecular target: Mitogen-activated protein kinase 7 (Homo sapiens) (UniProt Q13164); experiment: Inhibition of human ERK5 at 100 nM using MBP as substrate by [gamma-33P]-ATP assay
# Chain of Mitogen-activated protein kinase 7 (Homo sapiens) (Q13164 2-816 limits assumed): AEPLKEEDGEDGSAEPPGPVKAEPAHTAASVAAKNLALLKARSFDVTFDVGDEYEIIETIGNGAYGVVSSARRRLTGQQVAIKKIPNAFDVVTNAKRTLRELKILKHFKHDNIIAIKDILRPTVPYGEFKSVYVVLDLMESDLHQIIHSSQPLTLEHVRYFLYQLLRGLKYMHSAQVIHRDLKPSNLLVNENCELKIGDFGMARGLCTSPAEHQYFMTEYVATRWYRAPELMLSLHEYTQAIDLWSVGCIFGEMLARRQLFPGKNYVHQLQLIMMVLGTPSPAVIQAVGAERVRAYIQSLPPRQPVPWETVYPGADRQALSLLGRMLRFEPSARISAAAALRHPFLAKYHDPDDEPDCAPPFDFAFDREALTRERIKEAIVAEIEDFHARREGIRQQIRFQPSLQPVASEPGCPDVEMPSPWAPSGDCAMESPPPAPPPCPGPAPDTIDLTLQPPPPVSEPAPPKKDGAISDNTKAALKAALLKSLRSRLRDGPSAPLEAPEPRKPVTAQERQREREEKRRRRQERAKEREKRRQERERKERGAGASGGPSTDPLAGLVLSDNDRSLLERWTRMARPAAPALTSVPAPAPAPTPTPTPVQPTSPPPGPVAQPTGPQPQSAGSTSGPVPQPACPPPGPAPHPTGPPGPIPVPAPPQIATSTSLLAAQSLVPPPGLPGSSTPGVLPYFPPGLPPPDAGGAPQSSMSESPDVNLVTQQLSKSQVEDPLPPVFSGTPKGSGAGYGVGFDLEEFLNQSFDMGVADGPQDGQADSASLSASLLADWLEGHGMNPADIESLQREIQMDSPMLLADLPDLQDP
# [12] = molecular target: Focal adhesion kinase 1 (Homo sapiens) (UniProt Q05397); experiment: Inhibition of human FAK at 100 nM using poly[Glu:Tyr] (4:1) as substrate by [gamma-33P]-ATP assay
# [13] = molecular target: Receptor-type tyrosine-protein kinase FLT3 (Homo sapiens) (UniProt P36888); experiment: Inhibition of human FLT3 at 100 nM using EAIYAAPFAKKK as substrate by [gamma-33P]-ATP assay
# [14] = molecular target: Tyrosine-protein kinase FRK (Homo sapiens) (UniProt P42685); experiment: Inhibition of human FRK at 100 nM using poly[Glu:Tyr] (4:1) as substrate by [gamma-33P]-ATP assay
# Chain of Tyrosine-protein kinase FRK (Homo sapiens) (P42685 whole entry): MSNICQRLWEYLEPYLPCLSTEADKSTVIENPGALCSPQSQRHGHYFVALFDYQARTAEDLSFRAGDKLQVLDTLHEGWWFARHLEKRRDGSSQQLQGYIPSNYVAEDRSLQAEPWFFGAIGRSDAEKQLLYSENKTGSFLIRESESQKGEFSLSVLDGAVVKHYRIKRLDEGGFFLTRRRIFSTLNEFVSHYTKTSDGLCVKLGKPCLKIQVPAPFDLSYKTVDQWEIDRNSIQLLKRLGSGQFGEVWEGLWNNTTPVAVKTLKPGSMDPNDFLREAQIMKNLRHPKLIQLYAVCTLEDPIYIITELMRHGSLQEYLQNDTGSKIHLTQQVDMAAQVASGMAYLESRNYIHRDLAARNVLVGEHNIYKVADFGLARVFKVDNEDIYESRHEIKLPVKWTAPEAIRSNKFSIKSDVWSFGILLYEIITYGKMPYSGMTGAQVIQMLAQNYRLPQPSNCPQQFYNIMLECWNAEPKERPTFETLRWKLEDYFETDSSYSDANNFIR
# [15] = molecular target: Mitogen-activated protein kinase kinase kinase kinase 2 (Homo sapiens) (UniProt Q12851); experiment: Inhibition of human GCK at 100 nM using MBP as substrate by [gamma-33P]-ATP assay
# [16] = molecular target: G protein-coupled receptor kinase 4 (Homo sapiens) (UniProt P32298); experiment: Inhibition of human GRK4 at 100 nM using casein as substrate by [gamma-33P]-ATP assay
# [17] = molecular target: Homeodomain-interacting protein kinase 4 (Homo sapiens) (UniProt Q8NE63); experiment: Inhibition of human HIPK4 at 100 nM using MBP as substrate by [gamma-33P]-ATP assay
# [18] = molecular target: Kinase suppressor of Ras 2 (Homo sapiens) (UniProt Q6VAB6); experiment: Inhibition of human KSR2 at 100 nM using KRREILSRRPSYR as substrate by [gamma-33P]-ATP assay
# [19] = molecular target: Serine/threonine-protein kinase MAK (Homo sapiens) (UniProt P20794); experiment: Inhibition of human MAK at 100 nM using MBP as substrate by [gamma-33P]-ATP assay
# [20] = molecular target: Serine/threonine-protein kinase MARK2 (Homo sapiens) (UniProt Q7KZI7); experiment: Inhibition of human MARK2 isoform 4 at 100 nM using KKKVSRSGLYRSPSMPENLNRPR as substrate by [gamma-33P]-ATP assay
# [21] = molecular target: Dual specificity mitogen-activated protein kinase kinase 1 (Homo sapiens) (UniProt Q02750); experiment: Inhibition of human MEK1 at 100 nM using ERK2 as substrate by [gamma-33P]-ATP assay
# [22] = molecular target: Mitogen-activated protein kinase kinase kinase 11 (Homo sapiens) (UniProt Q16584); experiment: Inhibition of human MLK3 at 100 nM using MBP as substrate by [gamma-33P]-ATP assay
# [23] = molecular target: Serine/threonine-protein kinase Nek3 (Homo sapiens) (UniProt P51956); experiment: Inhibition of human NEK3 at 100 nM using MBP as substrate by [gamma-33P]-ATP assay
# [24] = molecular target: Serine/threonine-protein kinase PAK 5 (Homo sapiens) (UniProt Q9P286); experiment: Inhibition of human PAK5 at 100 nM using RRRLSFAEPG as substrate by [gamma-33P]-ATP assay
# [25] = molecular target: Ribosomal protein S6 kinase alpha-1 (Homo sapiens) (UniProt Q15418); experiment: Inhibition of human RSK1 at 100 nM using KKLNRTLSVA as substrate by [gamma-33P]-ATP assay
# [26] = molecular target: Serine/threonine-protein kinase TAO3 (Homo sapiens) (UniProt Q9H2K8); experiment: Inhibition of human TAOK3 at 100 nM using MBP as substrate by [gamma-33P]-ATP assay
# Chain of Serine/threonine-protein kinase TAO3 (Homo sapiens) (Q9H2K8 whole entry): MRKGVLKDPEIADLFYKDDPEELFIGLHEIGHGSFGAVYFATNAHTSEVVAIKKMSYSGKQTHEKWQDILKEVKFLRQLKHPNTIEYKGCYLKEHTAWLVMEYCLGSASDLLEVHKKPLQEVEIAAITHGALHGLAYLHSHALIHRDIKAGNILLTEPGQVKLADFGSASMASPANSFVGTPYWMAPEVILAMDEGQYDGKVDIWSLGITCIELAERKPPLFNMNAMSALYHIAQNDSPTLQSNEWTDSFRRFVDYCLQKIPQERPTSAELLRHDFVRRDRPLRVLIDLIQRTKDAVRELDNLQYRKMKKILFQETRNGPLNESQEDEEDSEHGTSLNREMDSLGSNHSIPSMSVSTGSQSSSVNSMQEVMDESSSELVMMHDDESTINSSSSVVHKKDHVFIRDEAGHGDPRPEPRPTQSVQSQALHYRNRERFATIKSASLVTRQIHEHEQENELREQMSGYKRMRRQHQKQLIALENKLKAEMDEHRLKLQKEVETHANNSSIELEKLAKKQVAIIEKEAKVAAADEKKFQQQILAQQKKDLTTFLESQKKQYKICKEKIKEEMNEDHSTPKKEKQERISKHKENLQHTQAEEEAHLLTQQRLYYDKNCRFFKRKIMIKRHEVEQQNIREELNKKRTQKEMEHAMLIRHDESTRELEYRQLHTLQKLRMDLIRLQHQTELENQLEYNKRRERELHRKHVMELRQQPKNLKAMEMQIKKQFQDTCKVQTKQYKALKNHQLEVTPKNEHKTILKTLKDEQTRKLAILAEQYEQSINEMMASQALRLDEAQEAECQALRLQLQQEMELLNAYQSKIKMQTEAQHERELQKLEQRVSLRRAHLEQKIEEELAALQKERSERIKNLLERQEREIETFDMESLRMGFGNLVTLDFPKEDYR
# [27] = molecular target: Serine/threonine-protein kinase VRK2 (Homo sapiens) (UniProt Q86Y07); experiment: Inhibition of human VRK2 at 100 nM using casein as substrate by [gamma-33P]-ATP assay
# Chain of Serine/threonine-protein kinase VRK2 (Homo sapiens) (Q86Y07 whole entry): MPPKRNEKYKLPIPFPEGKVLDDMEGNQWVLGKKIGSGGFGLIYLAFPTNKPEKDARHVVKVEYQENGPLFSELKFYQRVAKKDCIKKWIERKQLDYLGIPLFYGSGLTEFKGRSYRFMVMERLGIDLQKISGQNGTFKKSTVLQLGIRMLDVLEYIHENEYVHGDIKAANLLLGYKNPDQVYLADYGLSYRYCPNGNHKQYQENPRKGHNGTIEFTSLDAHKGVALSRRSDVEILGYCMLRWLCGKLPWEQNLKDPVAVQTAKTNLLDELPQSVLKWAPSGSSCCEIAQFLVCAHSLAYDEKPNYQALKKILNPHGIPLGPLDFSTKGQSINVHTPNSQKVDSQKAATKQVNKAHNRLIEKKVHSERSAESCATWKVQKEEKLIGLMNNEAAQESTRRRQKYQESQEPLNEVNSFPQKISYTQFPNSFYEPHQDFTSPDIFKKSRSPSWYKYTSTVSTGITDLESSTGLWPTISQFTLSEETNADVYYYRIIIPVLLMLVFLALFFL
# [28] = molecular target: AMP-activated protein kinase (AMPK) alpha-1/beta-1/gamma-1 (Homo sapiens) (UniProt P54619+Q9Y478+Q13131); experiment: Inhibition of human AMPK (A1/B1/G1) at 100 nM using HMRSAMSGLHLVKRR as substrate by [gamma-33P]-ATP assay; type: protein-complex assay
# [29] = molecular target: DNA-dependent protein kinase catalytic subunit (Homo sapiens) (UniProt P78527); experiment: Inhibition of human DNAPK at 100 nM using EPPLSQEAFADLWKK as substrate by [gamma-33P]-ATP assay
# HeLa = experiment: Inhibition of colony formation in human HeLa cells at 1.25 uM incubated for 2 weeks crystal violet staining based assay; type: functional; details: 336 h
# A549 = experiment: Antitumor activity against human A549 cells xenografted in ig dosed BALB/c nude mouse assessed as tumor growth inhibition administered for 30 days measured every 3 days during compound dosing relative to control; type: functional, organism-based
structure (smiles),measurement,setting,value
COc1ccc(N2C(=O)COc3ccc(-c4cnc(OC)c(NS(=O)(=O)c5ccc(F)cc5)c4)cc32)cc1,IC50,[1],22 nM
same,clearance,[2],8.56 mL/min/kg
same,inhibition,[3],0.84%
same,inhibition,[4],7.52%
same,inhibition,[5],-2.84%
same,inhibition,[6],-7.8%
same,inhibition,[7],8.65%
same,inhibition,[8],5.54%
same,inhibition,[9],1.74%
same,inhibition,[10],13%
same,inhibition,[11],-7.53%
same,inhibition,[12],15.9%
same,inhibition,[13],16.6%
same,inhibition,[14],8.7%
same,inhibition,[15],1.33%
same,inhibition,[16],1.46%
same,inhibition,[17],5.1%
same,inhibition,[18],20.8%
same,inhibition,[19],16.2%
same,inhibition,[20],1.93%
same,inhibition,[21],1.42%
same,inhibition,[22],3.29%
same,inhibition,[23],10.8%
same,inhibition,[24],-1.26%
same,inhibition,[25],10.8%
same,inhibition,[26],6.13%
same,inhibition,[27],7%
same,inhibition,[28],-4.91%
same,inhibition,[29],74.4%
same,inhibition at 1.25 µM,HeLa,> 50%
same,TGI,A549,Dose-dependent effect
